PubChem BioAssay (NCI)
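Dose response: 5 concentrations. Exposure: 48 h. Format: 96-well plates. Endpoint: linear interpolation; highest concentration if not reached. TGI: concentration producing complete growth inhibition.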

Assays:
Experiment in all cases: NCI-60 cell line screen, 48 h
[1] = tested on: MALME-3M melanoma
[2] = tested on: ACHN renal
[3] = tested on: KM12 colon
[4] = tested on: SF-268 CNS
[5] = tested on: SNB-75 CNS
[6] = tested on: OVCAR-5 ovarian
[7] = tested on: U251 CNS
[8] = tested on: OVCAR-3 ovarian
[9] = tested on: NCI/ADR-RES ovarian
[10] = tested on: UACC-257 melanoma
[11] = tested on: NCI-H226 lung
[12] = tested on: OVCAR-4 ovarian
[13] = tested on: EKVX NSCLC
[14] = tested on: NCI-H23 lung
[15] = tested on: LOX IMVI melanoma
[16] = tested on: MDA-MB-231 breast
[17] = tested on: SR leukemia
[18] = tested on: MDA-MB-435
[19] = tested on: HCT-116 colon
[20] = tested on: HOP-62 NSCLC
[21] = tested on: A549 NSCLC
[22] = tested on: DU-145 prostate
[23] = tested on: PC-3 prostate
[24] = tested on: SN12C renal
[25] = tested on: HCT-15 colon
[26] = tested on: SNB-19 CNS
[27] = tested on: RPMI-8226 leukemia
[28] = tested on: MOLT-4 leukemia
[29] = tested on: HL-60(TB) leukemia
[30] = tested on: SW-620 colon
[31] = tested on: SK-MEL-5 melanoma
[32] = tested on: NCI-H522 lung
[33] = tested on: COLO 205 colon
[34] = tested on: HT29 colon
[35] = tested on: CCRF-CEM leukemia
[36] = tested on: SK-MEL-28 melanoma
[37] = tested on: SK-MEL-2 melanoma
[38] = tested on: RXF 393 renal
[39] = tested on: BT-549 breast
[40] = tested on: SK-OV-3 ovarian
[41] = tested on: 786-0 renal
[42] = tested on: TK-10 renal
[43] = tested on: UO-31 renal
[44] = tested on: HOP-92 NSCLC
[45] = tested on: OVCAR-8 ovarian
[46] = tested on: MDA-N
[47] = tested on: SF-539 CNS
[48] = tested on: HS 578T breast
[49] = tested on: M14 melanoma
[50] = tested on: IGROV1 ovarian
[51] = tested on: T-47D breast
[52] = tested on: MCF7 breast
[53] = tested on: SF-295 CNS
[54] = tested on: K-562 leukemia
[55] = tested on: CAKI-1 renal

Compound: O=C(c1ccccc1)c1ccc2nc(-c3c(Cl)c(Cl)c(Cl)c(Cl)c3C(=O)N/N=C\C=C\c3ccccc3)[nH]c2c1
- TGI [1]: > 100 µM
- TGI [2]: > 100 µM
- TGI [3]: > 100 µM
- TGI [4]: > 100 µM
- TGI [5]: > 100 µM
- TGI [6]: > 100 µM
- TGI [7]: > 100 µM
- TGI [8]: 84.8 µM
- TGI [9]: > 100 µM
- TGI [10]: > 100 µM
- TGI [11]: > 100 µM
- TGI [12]: > 100 µM
- TGI [13]: > 100 µM
- TGI [14]: > 100 µM
- TGI [15]: > 100 µM
- TGI [16]: > 100 µM
- TGI [17]: 97.4 µM
- TGI [18]: > 100 µM
- TGI [19]: > 100 µM
- TGI [20]: > 100 µM
- TGI [21]: > 100 µM
- TGI [22]: > 100 µM
- TGI [23]: > 100 µM
- TGI [24]: > 100 µM
- TGI [25]: > 100 µM
- TGI [26]: > 100 µM
- TGI [27]: 64 µM
- TGI [28]: > 100 µM
- TGI [29]: > 100 µM
- TGI [30]: > 100 µM
- TGI [31]: > 100 µM
- TGI [32]: > 100 µM
- TGI [33]: > 100 µM
- TGI [34]: > 100 µM
- TGI [35]: 86.8 µM
- TGI [36]: > 100 µM
- TGI [37]: > 100 µM
- TGI [38]: 95.3 µM
- TGI [39]: > 100 µM
- TGI [40]: > 100 µM
- TGI [41]: > 100 µM
- TGI [42]: > 100 µM
- TGI [43]: > 100 µM
- TGI [44]: > 100 µM
- TGI [45]: > 100 µM
- TGI [46]: > 100 µM
- TGI [47]: > 100 µM
- TGI [48]: > 100 µM
- TGI [49]: > 100 µM
- TGI [50]: > 100 µM
- TGI [51]: > 100 µM
- TGI [52]: > 100 µM
- TGI [53]: > 100 µM
- TGI [54]: > 100 µM
- TGI [55]: > 100 µM
